Source: patent US8946247B2, “Quinazoline carboxamide azetidines” (Merck Patent GmbH, priority 2010, dated 2015)

Experiments:
[1] = biological target: T1, P70S6K (T412E mutant) (Homo sapiens, UniProt P23443, T412E); experiment: p70S6K Enzyme Assay; type: biochemical; details: 24 μM ATP, 90 min at 25° C., Caliper mobility shift
T1 construct: purchased Millipore
Experimental: p70S6K inhibitor compounds were diluted and plated in 96 well plates. A reaction mixture including the following components were then added to the compound plate to initiate the enzyme reaction; P70S6K (3 nM, T412E mutant, Millipore) was mixed with 24 μM ATP in an assay buffer containing 100 mM Hepes (pH 7.5), 5 mM MgCl2, 1 mM DTT, 0.015% Brij and 1 μM of the substrate peptide FITC-AHA-AKRRRLSSLRA-OH (derived from the S6 ribosomal protein sequence, FITC=fluorescein isothiocyanate, AHA=6-aminohexanoic acid). The reaction was incubated for 90 min at 25° C., before the addition of 10 mM EDTA to stop the reaction. The proportion of substrate and product (phosphorylated) peptide was analysed on a Caliper Life Sciences Lab Chip 3000, using a pressure of −1.4 psi, and upstream and downstream voltages of −3000 and −700 respectively. Product peaks were resolved before substrate peaks on the resulting chromatograms.
To assess the inhibitory potential of the compounds, IC50-values were determined, as shown in Chemical Synthesis section above.

[2] = biological target: T2, Aurora B (Homo sapiens, UniProt Q96GD4); experiment: Aurora B Kinase Assay; type: biochemical; details: GST-Aurora B (1-344), 10 uM ATP, 90 min at 25 C
T2 construct: GST-Aurora B (1-344 amino acids); GST (N); purchased Carna Biosciences 05-102
T2 sequence (Q96GD4 whole entry, the tested form may be a part): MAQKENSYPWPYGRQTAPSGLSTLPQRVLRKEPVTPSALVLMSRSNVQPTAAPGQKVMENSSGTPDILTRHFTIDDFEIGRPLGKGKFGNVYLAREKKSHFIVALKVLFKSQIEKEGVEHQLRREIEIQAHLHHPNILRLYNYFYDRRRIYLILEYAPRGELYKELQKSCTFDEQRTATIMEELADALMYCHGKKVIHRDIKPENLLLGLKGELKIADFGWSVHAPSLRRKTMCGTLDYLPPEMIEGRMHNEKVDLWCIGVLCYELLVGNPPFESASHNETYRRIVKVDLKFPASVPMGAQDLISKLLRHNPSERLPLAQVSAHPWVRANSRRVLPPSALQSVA
T2 sequence (Q9NQS7 803-918 partner limits assumed): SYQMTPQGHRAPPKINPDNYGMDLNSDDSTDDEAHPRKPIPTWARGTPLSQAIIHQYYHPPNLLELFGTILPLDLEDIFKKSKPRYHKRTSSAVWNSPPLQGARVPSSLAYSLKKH
Experimental: To measure inhibitor activity of Aurora B inhibitors in the Caliper Life Sciences LC3000, a TTP Mosquito liquid handling instrument was used to place 0.25 ul of the appropriate concentration of inhibitor in 100% DMSO (for a dose response curve calculation) into each well of a 384-well plate. To this reaction components was added to a final volume of 25 ul: • 0.1 ng/ul GST-Aurora B (1-344 amino acids), (Carna Biosciences 05-102. N-terminal GST fusion with His tagged INCEP, accession number Q96GD4). • 10 uM ATP (Fluka, 02055) • 1 mM DTT (Sigma, D0632) • 1 mM MgCl2 (Sigma, M1028) • 1 uM substrate peptide (sequence FITC-LRRASLG-(CONH2), synthesized by Tufts Peptide Synthesis service. • 100 mM HEPES pH 7.5 (Calbiochem, 391338) • 0.015% Brij-35 (Sigma, B4184)
(§1) The reaction was incubated for 90 min at 25 C, and then stopped by the addition of 70 ul of Stop buffer (100 mM HEPES pH 7.5, 0.015% Brij-35, 10 mM EDTA (Sigma, E7889)).
The plate was read on a Caliper LC 3000 in an Off-Chip mobility shift assay format, using the following parameters for a 12-sipper chip: screening pressure −1.8 psi, upstream voltage −2700, downstream voltage −1000. These conditions caused unphosphorylated substrate and phosphorylated product peptide to resolve as separate peaks allowing direct measurement of percentage of conversion of substrate to product. The percent conversion was plotted against concentration of inhibitor to produce a sigmoidal dose response curve, from which an IC50 was calculated using XLFit for Microsoft Excel.

[3] = tested on: pS6 MDA-MB-468; experiment: Cellular Activity Assay (phospho-S6 in MDA-MB-468 cells); type: cell-based; details: Homo sapiens, 2 hr compound incubation, percent pS6-positive cells
Experimental: MDA-MB-468 cells were grown in DMEM containing glutamine supplemented with 10% Fetal Bovine Serum (FBS) and 1× antibiotics. Cells were maintained by splitting 1:3 twice a week.
For the assay, cells were plated the evening before at a density of 4000 cells per well in black polyD lysine coated 384 well plates. Cells were incubated overnight (16 to 20 hours) in growth media. Compounds at an appropriate concentration were added to the wells and incubated for 2 hr. Controls included: i) no primary, ii) rabbit isotype, iii) propidium iodide (red) only and iv) anti-phospho-S6 antibody alone (green only). Cells were then fixed in 4% paraformaldehyde for 15-20 minutes at room temperature, then washed 3×80 ul with PBS.
50 ul 10% normal goat serum (NGS) with 0.2% triton X 100 in PBS were added and incubated for 30 to 60 minutes at room temperature. Anti-phospho-S6 antibody was diluted 1:800 2% with NGS in 0.2% TritonX-100 and 30 ul added to appropriate wells. The wells were incubated overnight at 4 degrees Celsius.
Then the wells were washed with 3×80 uL PBS. The secondary green fluorescence labeled antibody (Alexa Fluor® 488 F(ab′)2 fragment goat Anti-rabbit IgG (H+L)), was diluted 1:1500 in 2% NGS with 0.2% TritonX-100, and 30 ul were added to the appropriate wells which were then incubated in the dark at room temperature for 60 minutes. Then they were washed with 4×80 ul PBS. Propidium iodide (1.5 mM stock) was diluted 1:1000 in PBS, and 50 ul were added to the appropriate wells and incubated for 30 minutes at room temperature in the dark. Propidium iodide was not washed out. Plates were read on the Acumen Explorer.
Red and green cell populations were determined using controls. The number of green cells (pS6) and total number of cells (red) were then counted and the percentage of green cells was calculated. Percent positive cell data was plotted on a log scale against concentration of compounds and IC50 values were calculated from dose response curves.

[4] = biological target: T3, Akt1 (Homo sapiens, UniProt P31749); experiment: AKT/PKB Kinase Assay; type: biochemical; details: His-AKT (Full Length), 160 uM ATP, 90 min at 25 C
T3 construct: 0.1 ng/ul His-AKT (Full Length), (Invitrogen, Part #P2999, Lot #641228C); His; purchased Invitrogen P2999
T3 sequence (P31749 whole entry): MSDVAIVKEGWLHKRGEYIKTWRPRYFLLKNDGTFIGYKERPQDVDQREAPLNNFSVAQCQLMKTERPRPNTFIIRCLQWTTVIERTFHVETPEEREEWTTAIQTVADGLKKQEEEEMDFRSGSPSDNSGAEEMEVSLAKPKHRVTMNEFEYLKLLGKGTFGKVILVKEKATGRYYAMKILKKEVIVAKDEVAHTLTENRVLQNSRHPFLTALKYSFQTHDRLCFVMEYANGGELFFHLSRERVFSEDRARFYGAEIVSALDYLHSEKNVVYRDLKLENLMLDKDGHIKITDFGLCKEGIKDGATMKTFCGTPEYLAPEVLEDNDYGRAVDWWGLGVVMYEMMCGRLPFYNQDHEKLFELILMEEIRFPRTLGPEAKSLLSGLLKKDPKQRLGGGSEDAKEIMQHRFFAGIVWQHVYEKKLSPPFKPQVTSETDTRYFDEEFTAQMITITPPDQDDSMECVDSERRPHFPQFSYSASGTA
Experimental: In order to measure AKT inhibition in the Caliper Life Sciences LC3000, a TTP Mosquito liquid handling instrument was used to place 125 nl of the appropriate concentration of inhibitor in 100% DMSO (for a dose response curve calculation) into each well of a 384-well plate. To this reaction components were added to a final volume of 12.5 ul: • 0.1 ng/ul His-AKT (Full Length), (Invitrogen, Part #P2999, Lot #641228C) • 160 uM ATP (Fluke, 02055) • 1 mM DTT (Sigma, D0632) • 1 mM MgCl2 (Sigma, M1028) • 1 uM substrate peptide (sequence FITC-AHA-GRPRTSSFAEG-NH2), synthesized by Tufts Peptide Synthesis service. • 100 mM HEPES pH 7.5 (Calbiochem, 391338) • 0.015% Brij-35 (Sigma, B4184)
as §1
The plate was read on a Caliper LC 3000 in an Off-Chip mobility shift assay format, using the following parameters for a 12-sipper chip: screening pressure −2.3 psi, upstream voltage −500, and downstream voltage −3000.
These conditions cause unphosphorylated substrate and phosphorylated product peptide to resolve as separate peaks allowing direct measurement of percentage of conversion of substrate to product. The percent conversion was plotted against concentration of inhibitor to produce a sigmoidal dose response curve, from which an IC50 was calculated.

T1 sequence (P23443 1-421 T412E limits assumed): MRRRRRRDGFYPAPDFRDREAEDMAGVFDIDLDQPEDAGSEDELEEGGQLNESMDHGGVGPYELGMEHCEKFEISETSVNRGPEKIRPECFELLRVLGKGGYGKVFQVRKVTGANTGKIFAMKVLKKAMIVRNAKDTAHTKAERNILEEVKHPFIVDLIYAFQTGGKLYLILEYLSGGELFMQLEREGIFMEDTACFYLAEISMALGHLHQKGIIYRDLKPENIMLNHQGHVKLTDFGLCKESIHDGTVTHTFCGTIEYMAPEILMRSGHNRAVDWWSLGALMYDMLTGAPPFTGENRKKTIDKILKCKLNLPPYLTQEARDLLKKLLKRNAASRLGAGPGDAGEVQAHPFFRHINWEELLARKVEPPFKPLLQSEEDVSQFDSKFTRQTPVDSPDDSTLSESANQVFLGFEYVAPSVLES

| Compound | IC50 [1] | IC50 [2] | IC50 [3] | IC50 [4] |
| --- | --- | --- | --- | --- |
| NC(=O)c1cccc2c(N[C@H](CN3CCC3)c3cc(F)cc(C(F)(F)F)c3)ncnc12 [Example 6, 4-[(S)-2-Azetidin-1-yl-1-(3-fluoro-5-trifluoromethylphenyl)-ethylamino]-quinazoline-8-carboxylic acid amide] | 2.3 nM | 270 nM | 98 nM | 9.1 nM |
| NC(=O)c1cccc2c(N[C@H](CN3CCC3)c3ccc(F)c(Cl)c3)ncnc12 [Example 7, 4-[(S)-2-Azetidin-1-yl-1-(3-chloro-4-fluorophenyl)-ethylamino]-quinazoline-8-carboxylic acid amide] | 1.3 nM | 58 nM | 1.3 nM | 12 nM |
| NC(=O)c1cccc2c(N[C@H](CN3CCC3)c3ccc(Br)cc3)ncnc12 [Example 8, 4-[(S)-2-Azetidin-1-yl-1-(4-bromophenyl)-ethylamino]-quinazoline-8-carboxylic acid amide] | 1.6 nM | 65 nM | 39 nM | 48 nM |
| NC(=O)c1cccc2c(N[C@H](CN3CCC3)c3ccc(C(F)(F)F)cc3)ncnc12 [Example 9, 4-[(S)-2-Azetidin-1-yl-1-(4-trifluoromethylphenyl)-ethylamino]-quinazoline-8-carboxylic acid amide] | 0.8 nM | 260 nM | 10 nM | 17 nM |
| NC(=O)c1cccc2c(N[C@H](CN3CCC3)c3ccc(Cl)cc3)ncnc12 [Example 10, 4-[(S)-2-Azetidin-1-yl-1-(4-chlorophenyl)-ethylamino]-quinazoline-8-carboxylic acid amide] | 1 nM | 43 nM | 36 nM | 21 nM |
| N#Cc1cccc([C@@H](CN2CCC2)Nc2ncnc3c(C(N)=O)cccc23)c1 [Example 11, 4-[(S)-2-Azetidin-1-yl-1-(3-cyanophenyl)-ethylamino]-quinazoline-8-carboxylic acid amide] | 3.3 nM | 690 nM | 382 nM | 270 nM |
| COc1cccc([C@@H](CN2CCC2)Nc2ncnc3c(C(N)=O)cccc23)c1 [Example 12, 4-[(S)-2-Azetidin-1-yl-1-(3-methoxyphenyl)-ethylamino]-quinazoline-8-carboxylic acid amide] | 4.4 nM | 67 nM | 204 nM | 250 nM |
| NC(=O)c1cccc2c(N[C@H](CN3CCC3)c3cccc(Br)c3)ncnc12 [Example 13, 4-[(S)-2-Azetidin-1-yl-1-(3-bromophenyl)-ethylamino]-quinazoline-8-carboxylic acid amide] | 0.3 nM | 17 nM | 25 nM | 5 nM |
| NC(=O)c1cccc2c(N[C@H](CN3CCC3)c3ccc(Cl)cc3F)ncnc12 [Example 14, 4-[(S)-2-Azetidin-1-yl-1-(2-fluoro-4-chlorophenyl)-ethylamino]-quinazoline-8-carboxylic acid amide] | 1.1 nM | 69 nM | 86 nM | 25 nM |
| NC(=O)c1cccc2c(N[C@H](CN3CCC3)c3ccc(F)cc3F)ncnc12 [Example 15, 4-[(S)-2-Azetidin-1-yl-1-(2,4-difluorophenyl)-ethylamino]-quinazoline-8-carboxylic acid amide] | 6 nM | 200 nM | 144 nM | 84 nM |
| NC(=O)c1cccc2c(N[C@H](CN3CCC3)c3c(F)cccc3F)ncnc12 [Example 16, 4-[(S)-2-Azetidin-1-yl-1-(2,6-difluorophenyl)-ethylamino]-quinazoline-8-carboxylic acid amide] | 5.4 nM | 170 nM | 183 nM | 91 nM |
| NC(=O)c1cccc2c(N[C@H](CN3CCC3)c3ccc(C(F)(F)F)c(Cl)c3)ncnc12 [Example 17, 4-[(S)-2-Azetidin-1-yl-1-(3-chloro-4-trifluoromethylphenyl)-ethylamino]-quinazoline-8-carboxylic acid amide] | 2.3 nM | 130 nM | 8 nM | 3.7 nM |
| NC(=O)c1cccc2c(N[C@H](CN3CCC3)c3cc(F)c(F)cc3F)ncnc12 [Example 18, 4-[(S)-2-Azetidin-1-yl-1-(2,4,5-trifluorophenyl)-ethylamino]-quinazoline-8-carboxylic acid amide] | 3.8 nM | 220 nM | 85 nM | 36 nM |
| NC(=O)c1cccc2c(N[C@H](CN3CCC3)c3ccc(F)c(F)c3F)ncnc12 [Example 19, 4-[(S)-2-Azetidin-1-yl-1-(2,3,4-trifluorophenyl)-ethylamino]-quinazoline-8-carboxylic acid amide] | 2.1 nM | 360 nM | 62 nM | 23 nM |
| NC(=O)c1cccc2c(N[C@H](CN3CCC3)c3ccc4c(c3)OCO4)ncnc12 [Example 20, 4-[(S)-2-Azetidin-1-yl-1-(1-benzo[1,3]dioxol)-ethylamino]-quinazoline-8-carboxylic acid amide] | 1.7 nM | 300 nM | 68 nM | 120 nM |
| N#Cc1ccc([C@@H](CN2CCC2)Nc2ncnc3c(C(N)=O)cccc23)cc1 [Example 23, 4-[(S)-2-Azetidin-1-yl-1-(4-cyano-phenyl)-ethylamino]-quinazoline-8-carboxylic acid amide] | 1.3 nM | 150 nM | 29 nM | 11 nM |
